# Reference: PubChem BioAssay AID1845201 (Molecular Pharmacology Branch, DTP, NCI, 2023)
# Values joined by “and” are separate entries in the source; they are usually repeats but may differ in a detail not shown here. Equal values may be shown once.
# System: COR L88 complex tumor spheroid viability
# Assay: Anticancer human tumor COR L88 cell line growth inhibition;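 note: compound exposure lasted 7 days before viability readout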;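 for viability, T/C: percent of DMSO vehicle-treated spheroids = 100%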
# Details: for viability, T/C: stronger effect = lower value
# Summary of the method: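 Complex spheroids of malignant cells with endothelial cells and mesenchymal stem cells; agents alone or combined, from near clinical Cmax (or 10 microM if unknown) down in half-log steps, 0.25% DMSO final.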
# [1] = curve of first compound, second compound 30 pM
# [2] = curve of first compound, second compound 94.9 pM
# [3] = curve of first compound, second compound 0.0003 µM
# [4] = curve of first compound, second compound 0.000949 µM
# [5] = curve of first compound, second compound 0.003 µM
structure (smiles),measurement,setting,value
Cc1sc2c(c1C)C(c1ccc(Cl)cc1)=NC(CC(=O)Nc1ccc(O)cc1)c1nnc(C)n1-2 (stereo not given) + COc1cc2c(cc1O)CCNC21CSC2c3c(OC(C)=O)c(C)c4c(c3C(COC1=O)N1C(O)C3Cc5cc(C)c(OC)c(O)c5C(C21)N3C)OCO4,IC50,[1],0.455 µM
same,IC50,[2],0.432 µM
same,IC50,[3],0.464 µM
same,IC50,[4],0.104 µM
same,IC50,[5],< 0.00949 µM
same,"viability, T/C","second compound 30 pM, first compound 0.00949 µM",92.5%
same,"viability, T/C","second compound 30 pM, first compound 0.03 µM",90.9%
same,"viability, T/C","second compound 30 pM, first compound 0.0949 µM",101%
same,"viability, T/C","second compound 30 pM, first compound 0.3 µM",65.3%
same,"viability, T/C","second compound 30 pM, first compound 0.949 µM",23.6%
same,"viability, T/C","second compound 30 pM, first compound 3 µM",14.8%
same,"viability, T/C","second compound 94.9 pM, first compound 0.00949 µM",92.6%
same,"viability, T/C","second compound 94.9 pM, first compound 0.03 µM",96.5%
same,"viability, T/C","second compound 94.9 pM, first compound 0.0949 µM",94.2%
same,"viability, T/C","second compound 94.9 pM, first compound 0.3 µM",55.3%
same,"viability, T/C","second compound 94.9 pM, first compound 0.949 µM",33.5%
same,"viability, T/C","second compound 94.9 pM, first compound 3 µM",14.1%
same,"viability, T/C","second compound 0.0003 µM, first compound 0.00949 µM",76.1%
same,"viability, T/C","second compound 0.0003 µM, first compound 0.03 µM",118%
same,"viability, T/C","second compound 0.0003 µM, first compound 0.0949 µM",122%
same,"viability, T/C","second compound 0.0003 µM, first compound 0.3 µM",72.6%
same,"viability, T/C","second compound 0.0003 µM, first compound 0.949 µM",15.1%
same,"viability, T/C","second compound 0.0003 µM, first compound 3 µM",3.51%
same,"viability, T/C","second compound 0.000949 µM, first compound 0.00949 µM",87.4%
same,"viability, T/C","second compound 0.000949 µM, first compound 0.03 µM",84.6%
same,"viability, T/C","second compound 0.000949 µM, first compound 0.0949 µM",54%
same,"viability, T/C","second compound 0.000949 µM, first compound 0.3 µM",5.62%
same,"viability, T/C","second compound 0.000949 µM, first compound 0.949 µM",1.33%
same,"viability, T/C","second compound 0.000949 µM, first compound 3 µM",0.42%
same,"viability, T/C","second compound 0.003 µM, first compound 0.00949 µM",0.68%
same,"viability, T/C","second compound 0.003 µM, first compound 0.03 µM",0.7%
same,"viability, T/C","second compound 0.003 µM, first compound 0.0949 µM",0.6%
same,"viability, T/C","second compound 0.003 µM, first compound 0.3 µM",0.57%
same,"viability, T/C","second compound 0.003 µM, first compound 0.949 µM",0.69%
same,"viability, T/C","second compound 0.003 µM, first compound 3 µM",1.49%
CC1COCCN1c1cc(-c2ccnn2C)c2ccnc(-c3ccn[nH]3)c2n1 (stereo not given) + COc1cc2c(cc1O)CCNC21CSC2c3c(OC(C)=O)c(C)c4c(c3C(COC1=O)N1C(O)C3Cc5cc(C)c(OC)c(O)c5C(C21)N3C)OCO4,IC50,[1],0.111 µM
same,IC50,[2],< 0.0316 µM
same,IC50,[3],< 0.0316 µM
same,IC50,[4],< 0.0316 µM
same,IC50,[5],< 0.0316 µM
same,"viability, T/C","second compound 30 pM, first compound 0.0316 µM",72.1%
same,"viability, T/C","second compound 30 pM, first compound 0.1 µM",49.5%
same,"viability, T/C","second compound 30 pM, first compound 0.316 µM",36.7%
same,"viability, T/C","second compound 30 pM, first compound 1 µM",20.3%
same,"viability, T/C","second compound 30 pM, first compound 3.16 µM",7.72%
same,"viability, T/C","second compound 30 pM, first compound 10 µM",3.13%
same,"viability, T/C","second compound 94.9 pM, first compound 0.0316 µM",41.8%
same,"viability, T/C","second compound 94.9 pM, first compound 0.1 µM",36.9%
same,"viability, T/C","second compound 94.9 pM, first compound 0.316 µM",25.6%
same,"viability, T/C","second compound 94.9 pM, first compound 1 µM",17.2%
same,"viability, T/C","second compound 94.9 pM, first compound 3.16 µM",6.6%
same,"viability, T/C","second compound 94.9 pM, first compound 10 µM",2.46%
same,"viability, T/C","second compound 0.0003 µM, first compound 0.0316 µM",28.6%
same,"viability, T/C","second compound 0.0003 µM, first compound 0.1 µM",25.4%
same,"viability, T/C","second compound 0.0003 µM, first compound 0.316 µM",19.9%
same,"viability, T/C","second compound 0.0003 µM, first compound 1 µM",11%
same,"viability, T/C","second compound 0.0003 µM, first compound 3.16 µM",3.54%
same,"viability, T/C","second compound 0.0003 µM, first compound 10 µM",1.58%
same,"viability, T/C","second compound 0.000949 µM, first compound 0.0316 µM",6.86%
same,"viability, T/C","second compound 0.000949 µM, first compound 0.1 µM",7.07%
same,"viability, T/C","second compound 0.000949 µM, first compound 0.316 µM",3.61%
same,"viability, T/C","second compound 0.000949 µM, first compound 1 µM",2.02%
same,"viability, T/C","second compound 0.000949 µM, first compound 3.16 µM",0.7%
same,"viability, T/C","second compound 0.000949 µM, first compound 10 µM",0.25%
same,"viability, T/C","second compound 0.003 µM, first compound 0.0316 µM",0.56%
same,"viability, T/C","second compound 0.003 µM, first compound 0.1 µM",0.53%
same,"viability, T/C","second compound 0.003 µM, first compound 0.316 µM",0.53%
same,"viability, T/C","second compound 0.003 µM, first compound 1 µM",0.41%
same,"viability, T/C","second compound 0.003 µM, first compound 3.16 µM",0.58%
same,"viability, T/C","second compound 0.003 µM, first compound 10 µM",0.58%
Cc1sc2c(c1C)C(c1ccc(Cl)cc1)=NC(CC(=O)Nc1ccc(O)cc1)c1nnc(C)n1-2 (stereo not given),"viability, T/C",compound 0.00949 µM,93.4% and 99.2% and 89.1%
same,"viability, T/C",compound 0.03 µM,94.7% and 94.8% and 84.9%
same,"viability, T/C",compound 0.0949 µM,103% and 94.4% and 85.7%
same,"viability, T/C",compound 0.3 µM,63.8% and 67.1% and 47.9%
same,"viability, T/C",compound 0.949 µM,37.4% and 33.8% and 21.4%
same,"viability, T/C",compound 3 µM,20.6% and 19.2% and 17.3%
same,IC50,curve of compound,0.534 µM and 0.543 µM and 0.283 µM
[2H]c1nc(C)nc([2H])c1-c1cc(NC[C@@H](C)c2cccc3c(C(=O)NC)ccnc23)ncn1,"viability, T/C",compound 0.0316 µM,101% and 94.7% and 105%
same,"viability, T/C",compound 0.1 µM,99.9% and 96.5% and 98.1%
same,"viability, T/C",compound 0.316 µM,109% and 101% and 102%
same,"viability, T/C",compound 1 µM,88.5% and 106% and 102%
same,"viability, T/C",compound 3.16 µM,92.1% and 95.2% and 96.4%
same,"viability, T/C",compound 10 µM,91.8% and 97.2% and 103%
same,IC50,curve of compound,> 10 µM
Cn1nnc2c(C(N)=O)ncn2c1=O,"viability, T/C",compound 1 µM,96.2% [middle of 10 runs]
same,"viability, T/C",compound 3.16 µM,96.8% [middle of 10 runs]
same,"viability, T/C",compound 10 µM,95% [middle of 10 runs]
same,"viability, T/C",compound 31.6 µM,84.1% [middle of 10 runs]
same,"viability, T/C",compound 100 µM,70.6% [middle of 10 runs]
same,IC50,"compound alone, run of 10/17/2019",> 100 µM
